Assay results reported in ChEMBL document CHEMBL1201862, “PubChem BioAssay data set” (2004).
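Dose response: 5 concentrations. Exposure: 48 h. Format: 96-well plates. Endpoint: linear interpolation; highest concentration if not reached. GI50 is the concentration that inhibits growth by half.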 Activity calls are given as the source filed them. No stated cut-off is given here; in the data, active = GI50 up to about 1.1 µM and inactive = higher.

Tests used:
Experiment in all cases: NCI anticancer screen, dose series, 48 h
HOP-92 = system: HOP-92
UACC-62 = system: UACC-62
PC-3 = system: PC-3
IGROV-1 = system: IGROV-1
OVCAR-3 = system: OVCAR-3
OVCAR-5 = system: OVCAR-5
UACC-257 = system: UACC-257
NCI/ADR-RES = system: NCI/ADR-RES
ACHN = system: ACHN
SN12C = system: SN12C
SF-268 = system: SF-268
RPMI-8226 = system: RPMI-8226
SK-MEL-2 = system: SK-MEL-2
M14 = system: M14
HT-29 = system: HT-29
UO-31 = system: UO-31
EKVX = system: EKVX
MDA-MB-435 = system: MDA-MB-435
SR = system: SR
SK-OV-3 = system: SK-OV-3

Compound: CC1CC(C(=O)OC2OC(COC3OC(CO)C(OC4OC(C)C(O)C(O)C4O)C(O)C3O)C(O)C(O)C2O)C2CCC3(C)C(=CCC4(C)C3CCC3C(C)(CO)C(O)C(O)CC34C)C2C1C (stereo not given)
- GI50 (HOP-92): 17.4 µM (inactive)
- GI50 (UACC-62): 17.7 µM (inactive)
- GI50 (PC-3): 29.5 µM (inactive)
- GI50 (IGROV-1): 16.9 µM (inactive)
- GI50 (OVCAR-3): 23.3 µM (inactive)
- GI50 (OVCAR-5): 26.7 µM (inactive)
- GI50 (UACC-257): > 10 µM (inactive)
- GI50 (NCI/ADR-RES): > 100 µM (inactive)
- GI50 (ACHN): > 10 µM (inactive)
- GI50 (SN12C): 20.7 µM (inactive)
- GI50 (SF-268): 19 µM (inactive)
- GI50 (RPMI-8226): 21.4 µM (inactive)
- GI50 (SK-MEL-2): 18.9 µM (inactive)
- GI50 (M14): 35.7 µM (inactive)
- GI50 (HT-29): 21.8 µM (inactive)
- GI50 (UO-31): > 100 µM (inactive)
- GI50 (EKVX): > 10 µM (inactive)
- GI50 (MDA-MB-435): 18.6 µM (inactive)
- GI50 (SR): 17.9 µM (inactive)
- GI50 (SK-OV-3): 49.1 µM (inactive)

Compound: O=C1/C(=C/c2ccccc2)CCc2ccc([N+](=O)[O-])cc21
- GI50 (HOP-92): 81.5 µM (inactive)
- GI50 (UACC-62): 31 µM (inactive)
- GI50 (PC-3): 44.2 µM (inactive)
- GI50 (IGROV-1): 72.9 µM (inactive)
- GI50 (OVCAR-3): > 100 µM (inactive)
- GI50 (OVCAR-5): > 100 µM (inactive)
- GI50 (UACC-257): 39.5 µM (inactive)
- GI50 (NCI/ADR-RES): 43.6 µM (inactive)
- GI50 (ACHN): 40.4 µM (inactive)
- GI50 (SN12C): > 75.9 µM (inactive)
- GI50 (SF-268): 30.7 µM (inactive)
- GI50 (RPMI-8226): 0.492 µM (active)
- GI50 (SK-MEL-2): 13.6 µM (inactive)
- GI50 (M14): 48.2 µM (inactive)
- GI50 (HT-29): > 100 µM (inactive)
- GI50 (UO-31): > 82.8 µM (inactive)
- GI50 (EKVX): > 91.8 µM (inactive)
- GI50 (MDA-MB-435): 40.8 µM (inactive)
- GI50 (SR): 4.26 µM (inactive)
- GI50 (SK-OV-3): 41 µM (inactive)

Compound: Clc1ccccc1C(Nc1ncccn1)Nc1ncccn1
- GI50 (HOP-92): > 100 µM (inactive)
- GI50 (UACC-62): > 100 µM (inactive)
- GI50 (PC-3): > 100 µM (inactive)
- GI50 (IGROV-1): > 100 µM (inactive)
- GI50 (OVCAR-3): > 100 µM (inactive)
- GI50 (OVCAR-5): > 100 µM (inactive)
- GI50 (UACC-257): > 100 µM (inactive)
- GI50 (NCI/ADR-RES): > 100 µM (inactive)
- GI50 (ACHN): > 100 µM (inactive)
- GI50 (SN12C): > 100 µM (inactive)
- GI50 (SF-268): > 100 µM (inactive)
- GI50 (RPMI-8226): > 100 µM (inactive)
- GI50 (SK-MEL-2): > 100 µM (inactive)
- GI50 (M14): > 100 µM (inactive)
- GI50 (HT-29): > 100 µM (inactive)
- GI50 (UO-31): > 100 µM (inactive)
- GI50 (EKVX): > 100 µM (inactive)
- GI50 (MDA-MB-435): 76.6 µM (inactive)
- GI50 (SR): 8.15 µM (inactive)
- GI50 (SK-OV-3): > 100 µM (inactive)

Compound: S=C(Nc1ccc2cn[nH]c2c1)Nc1ccc2cn[nH]c2c1
- GI50 (HOP-92): > 100 µM (inactive)
- GI50 (UACC-62): 48.5 µM (inactive)
- GI50 (PC-3): 48.5 µM (inactive)
- GI50 (IGROV-1): 46.8 µM (inactive)
- GI50 (OVCAR-3): > 100 µM (inactive)
- GI50 (OVCAR-5): 95.5 µM (inactive)
- GI50 (UACC-257): 96.6 µM (inactive)
- GI50 (NCI/ADR-RES): > 100 µM (inactive)
- GI50 (ACHN): 51.8 µM (inactive)
- GI50 (SN12C): > 100 µM (inactive)
- GI50 (SF-268): > 100 µM (inactive)
- GI50 (RPMI-8226): 38 µM (inactive)
- GI50 (SK-MEL-2): 35.6 µM (inactive)
- GI50 (M14): > 100 µM (inactive)
- GI50 (HT-29): 50 µM (inactive)
- GI50 (UO-31): > 100 µM (inactive)
- GI50 (EKVX): 54 µM (inactive)
- GI50 (MDA-MB-435): 58.9 µM (inactive)
- GI50 (SR): 25.8 µM (inactive)
- GI50 (SK-OV-3): > 100 µM (inactive)

Compound: O=C(O)CSC(CC1(c2ccc(Cl)cc2)NC(=O)CS1)c1ccc(Cl)cc1 (stereo not given)
- GI50 (HOP-92): 22.8 µM (inactive)
- GI50 (UACC-62): 85.1 µM (inactive)
- GI50 (PC-3): > 100 µM (inactive)
- GI50 (IGROV-1): > 100 µM (inactive)
- GI50 (OVCAR-3): 45.6 µM (inactive)
- GI50 (OVCAR-5): > 100 µM (inactive)
- GI50 (UACC-257): 65.9 µM (inactive)
- GI50 (NCI/ADR-RES): > 100 µM (inactive)
- GI50 (ACHN): > 100 µM (inactive)
- GI50 (SN12C): > 100 µM (inactive)
- GI50 (SF-268): > 100 µM (inactive)
- GI50 (RPMI-8226): > 100 µM (inactive)
- GI50 (SK-MEL-2): 83.6 µM (inactive)
- GI50 (M14): > 100 µM (inactive)
- GI50 (HT-29): > 100 µM (inactive)
- GI50 (UO-31): > 100 µM (inactive)
- GI50 (EKVX): > 100 µM (inactive)
- GI50 (MDA-MB-435): > 100 µM (inactive)
- GI50 (SR): > 100 µM (inactive)
- GI50 (SK-OV-3): > 100 µM (inactive)
